Laboratory results from patent US10239923B2, “Specific amyloid beta binding peptides and the use of same for treating and diagnosing alzheimer's dementia” (Forschungszentrum Juelich GmbH, priority 2015, dated 2019).
Square brackets hold non-standard residues; d marks the D form. Peptide text beside a SMILES is read from it.

Columns and labels:
[1] = molecular target: T1, Aβ1-42 monomers versus Aβ1-42 oligomers and fibrils (biotinylated, D-enantiomeric, immobilized) (Homo sapiens, UniProt P05067); test: Monoclonal phage ELISA; type: binding
T1 construct: biotinylated, D-enantiomeric Aβ1-42 monomers
T1 sequence (P05067 672-713): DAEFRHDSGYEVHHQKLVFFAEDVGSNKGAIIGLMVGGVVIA

Aβ1-42 = Aβ1-42 (Homo sapiens, UniProt P05067); test: TEM of Aβ1-42 incubated with and without Mosd1; type: biochemical; conditions: 10 μM Aβ1-42 with 10 μM Mosd1, 24 hours, room temperature
Aβ1-42, sequence (P05067 672-713 limits assumed): as the sequence (P05067 672-713) above
From the text: The scale bars correspond to 0.25 μm.

[2] = system: Neuro-2a cells stably transfected with human APP695; test: Influence on APP-expressing cells; type: cell-based, murine; conditions: incubation with 10 μM or 100 μM Mosd1
Description: FIG. 9: The murine neuroblastoma cell line Neuro-2a serves as a model for neuronal cells and is thus suitable for analyzing the symptoms of AD. […] In this way, the influence of naturally occurring Aβ1-42 species can be examined directly in neuronal cells. In the experiment, Neuro-2a cells were cultivated without APP parallel to those with the APP transfection. […] By incubation with 10 μM or 100 μM Mosd1, however, this pathological phenotype can be reversed, and the cells develop in accordance with the physiological phenotype corresponding to wild-type Neuro-2a cells. This means that the cell number increases and the cells accumulate, have a polygonal shape and form numerous cell contact points and spurs (middle and right-hand image).

Difference in signal strength between Aβ1-42 monomers (100%) and Aβ1-42 oligomers and fibrils ([1]; individual phage clones, species immobilized at 320 nM, absorption at 450 nm normalized with 6E10 control, higher = more monomer-specific): 71.989%
SMILES: CSCC[C@@H](NC(=O)[C@@H](Cc1c[nH]cn1)NC(=O)[C@@H](Cc1ccc(O)cc1)NC(=O)[C@@H](CO)NC(=O)[C@H](NC(=O)[C@@H](CC(C)C)NC(=O)[C@@H](Cc1ccc(O)cc1)NC(=O)[C@@H](CO)NC(=O)[C@H](N)Cc1ccc(O)cc1)[C@H](C)O)C(=O)N[C@@H](C(=O)N[C@H](Cc1c[nH]c2ccccc12)C(=O)N[C@H](CCCNC(=N)N)C(N)=O)C(C)C [Mosd1] (H-[dY][dS][dY][dL][dT][dS][dY][dH][dM][dV][dW][dR]-NH2)
absorption values (signal strength) for monomeric Aβ1-42 ([1]; individual phage clone, absorption at 450 nm): highest absorption values for monomeric Aβ1-42 of all tested clones | binding preference for monomeric Aβ1-42 over Aβ1-42 oligomers and fibrils or plastics surface ([1]; normalized absorption values at 450 nm): greatest difference in the absorption values for monomeric Aβ1-42 and oligomeric or fibrillar Aβ1-42 | aggregate morphology in TEM (Aβ1-42): formation of large, high-molecular aggregates | pathological phenotype of APP-expressing cells [2]: reversed
